Source: patent US10711230B2, “N-acyl proline derivatives as food flavoring compounds” (Givaudan S.A., priority 2012, dated 2020)

Columns and labels:
[1] = Expert taster evaluation in a mango juice drink; details: 1 ppm in base (water, 8% sucrose, 0.1% citric acid, 1% clear mango juice, mango flavour 0.05%); base alone: fruity mango
Description: (§1) Samples were evaluated by expert tasters. Tasters were asked to describe the samples focusing on authentic taste, mouthfeel, fullness, salty-ness, salivation, umami, sweetness, juiciness, richness, long lastingness and fattiness.
Comparison in a Mango Juice Drink
Base is water, 8% sucrose, 0.1% citric acid, 1% clear mango juice, proprietary mango flavour @ 0.05%

[2] = Expert taster evaluation in beef bouillon; details: 1 ppm in base (Maggi beef bouillon, 1 tablet in 500 ml hot water); base alone: salty, umami, powdery
Description: as §1
Base is Maggi beef bouillon 1 tablet in 500 ml of hot water

[3] = Expert taster evaluation in orange beverage; details: 1 ppm in base (water, 7% sugar, 0.1% citric acid, orange flavour 0.06%); base alone: orange, fruity, slightly candy
Description: as §1
Base is water, 7% sugar, 0.1% citric acid, proprietary orange flavour @ 0.06%.

[4] = Expert taster evaluation in lemon beverage; details: 1 ppm in base (water, 7% sucrose, 0.15% citric acid, lemon flavor), base alone: floral, citral
Description: as §1
Basis water, 7% sucrose, 0.15% citric acid, proprietary lemon flavor

| Compound | taste description in mango juice drink [1] | taste description in bouillon [2] | taste description in orange beverage [3] | taste description in lemon beverage [4] |
| --- | --- | --- | --- | --- |
| CCCCCCCCCCCCCCCC(=O)N1CCCC1C(=O)O (stereo not shown) [C16:0-pro, N-palmitoyl-Pro] | overripe, orange like, long lasting after taste | more salty, full, darker, more meat-like | – | – |
| CCCCC/C=C\C/C=C\CCCCCCCC(=O)N1CCC[C@H]1C(=O)O [C18:2-pro, N-linoleoyl-Pro] | – | – | very juicy, authentic orange | very juicy, more citral like, very authentic |
